What was measured:
[1] = biological target: T1, SIK1 kinase (aa1-303, Thermo Fisher) (Homo sapiens, UniProt P57059); experiment: Biochemical activities determination for SIK1 protein (TR-FRET); details: 110 uM ATP, 0.5 μM STK1 substrate
T1 construct: SIK1 kinase (aa1-303, Thermo Fisher); purchased Thermo Fisher
In short: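 TR-FRET kinase assay with SIK1 (aa1-303), 110 uM ATP, 0.5 μM STK1 substrate and 0-10 μM compound in Tris pH 7.5 with MgCl2, EGTA, DTT, Triton X-100. Enzyme preincubated with compound 60 min, reaction 180 min at room temperature; 665/620 nm ratio after overnight detection; IC50 from four-parameter logistic fit.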

[2] = biological target: T2, SIK2 kinase (full length, Thermo Fisher) (Homo sapiens, UniProt Q9H0K1); experiment: Biochemical activities determination for SIK2 protein (TR-FRET); details: 80 uM ATP, 0.5 μM substrate
T2 construct: SIK2 kinase (full length, Thermo Fisher); purchased Thermo Fisher
In short: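 Full-length SIK2 preincubated 60 min with 0–10 μM compound, then reacted 180 min at room temperature with 80 uM ATP and 0.5 μM biotinylated substrate (pH 7.5 Tris/MgCl2 buffer). Phosphorylation detected by TR-FRET (665/620 nm ratio, cryptate antibody/streptavidin-XL665) after overnight incubation; IC50 from four-parameter logistic fit.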

[3] = biological target: T3, SIK3 kinase (aa59-365, Thermo Fisher) (Homo sapiens, UniProt Q9Y2K2); experiment: Biochemical activities determination for SIK3 protein (TR-FRET); details: 125 uM ATP, 0.5 μM STK1 substrate
T3 construct: SIK3 kinase (aa59-365, Thermo Fisher); purchased Thermo Fisher
In short: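 SIK3 (aa59-365) was preincubated with compound (0-10 μM) for 60 min at room temperature in Tris buffer pH 7.5. The reaction was then started with 125 uM ATP and 0.5 μM STK1 substrate and run 180 min at room temperature. Phospho-substrate was detected by HTRF (665/620 nm ratio), and IC50 came from a four-parameter logistic fit.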

T3 sequence (Q9Y2K2 59-365): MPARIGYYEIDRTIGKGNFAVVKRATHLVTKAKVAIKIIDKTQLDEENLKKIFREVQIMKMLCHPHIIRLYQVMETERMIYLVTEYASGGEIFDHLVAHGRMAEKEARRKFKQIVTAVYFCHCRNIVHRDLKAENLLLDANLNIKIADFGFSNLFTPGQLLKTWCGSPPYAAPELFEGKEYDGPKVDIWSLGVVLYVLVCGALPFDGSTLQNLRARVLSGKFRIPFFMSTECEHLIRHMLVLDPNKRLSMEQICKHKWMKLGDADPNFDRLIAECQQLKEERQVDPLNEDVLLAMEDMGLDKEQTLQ
T2 sequence (Q9H0K1 whole entry): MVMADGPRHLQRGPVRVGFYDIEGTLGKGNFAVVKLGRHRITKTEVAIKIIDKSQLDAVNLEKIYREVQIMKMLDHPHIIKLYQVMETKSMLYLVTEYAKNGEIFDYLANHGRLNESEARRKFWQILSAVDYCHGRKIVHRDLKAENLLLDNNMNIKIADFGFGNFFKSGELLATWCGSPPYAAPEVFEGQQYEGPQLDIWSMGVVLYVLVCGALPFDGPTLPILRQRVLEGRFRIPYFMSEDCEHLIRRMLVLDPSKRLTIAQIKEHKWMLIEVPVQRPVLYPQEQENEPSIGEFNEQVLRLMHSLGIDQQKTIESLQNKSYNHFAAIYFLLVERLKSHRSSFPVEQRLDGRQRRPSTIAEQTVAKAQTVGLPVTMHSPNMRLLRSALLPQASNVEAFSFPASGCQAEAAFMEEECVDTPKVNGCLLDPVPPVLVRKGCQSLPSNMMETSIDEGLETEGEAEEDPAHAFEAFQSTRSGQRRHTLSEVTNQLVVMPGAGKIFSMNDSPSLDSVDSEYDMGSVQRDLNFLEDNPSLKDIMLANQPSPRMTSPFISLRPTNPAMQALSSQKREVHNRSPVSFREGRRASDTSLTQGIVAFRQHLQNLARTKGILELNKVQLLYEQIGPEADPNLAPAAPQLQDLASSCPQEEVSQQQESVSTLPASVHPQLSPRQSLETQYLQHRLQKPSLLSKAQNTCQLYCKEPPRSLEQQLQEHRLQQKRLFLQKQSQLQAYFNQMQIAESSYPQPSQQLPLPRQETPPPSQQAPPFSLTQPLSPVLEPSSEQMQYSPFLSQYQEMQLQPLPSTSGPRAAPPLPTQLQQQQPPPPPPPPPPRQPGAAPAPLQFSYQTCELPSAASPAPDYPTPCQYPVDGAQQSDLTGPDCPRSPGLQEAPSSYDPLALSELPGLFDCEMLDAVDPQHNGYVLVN
T1 sequence (P57059 1-303): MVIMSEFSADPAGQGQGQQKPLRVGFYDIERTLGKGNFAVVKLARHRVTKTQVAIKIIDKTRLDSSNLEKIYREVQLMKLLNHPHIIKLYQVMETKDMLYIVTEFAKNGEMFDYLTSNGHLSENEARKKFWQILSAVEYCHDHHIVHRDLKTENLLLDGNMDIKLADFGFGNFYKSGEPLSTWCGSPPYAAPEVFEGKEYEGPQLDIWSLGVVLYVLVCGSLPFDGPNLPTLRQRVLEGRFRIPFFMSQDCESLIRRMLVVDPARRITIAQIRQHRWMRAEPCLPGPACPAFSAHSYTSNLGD

## CNc1cc(-c2coc3cc(OCCN4CCCC4)ccc23)cc(OC(F)F)c1C(=O)NC1CC1 [Compound 122, N-cyclopropyl-2-(difluoromethoxy)-6-(methylamino)-4-(6-(2-(pyrrolidin-1-yl)ethoxy)benzofuran-3-yl)benzamide]
[1]
  IC50: 3960 nM
[2]
  IC50: 45 nM
[3]
  IC50: 158 nM

## O=C(NC1CC1)c1c(OC(F)F)cc(-c2coc3cc(OCCN4CCCC4)ccc23)cc1OC(F)F [Compound 123, N-cyclopropyl-2,6-bis(difluoromethoxy)-4-(6-(2-(pyrrolidin-1-yl)ethoxy)benzofuran-3-yl)benzamide]
[1]
  IC50: 8000 nM
[2]
  IC50: 114 nM
[3]
  IC50: 506 nM

## COc1cc(-c2coc3cc(OCCN4CCCC4)ccc23)cc(OC(F)F)c1C(=O)N[C@H]1CCCC[C@H]1O [Compound 125, 2-(difluoromethoxy)-N-((1S,2R)-2-hydroxycyclohexyl)-6-methoxy-4-(6-(2-(pyrrolidin-1-yl)ethoxy)benzofuran-3-yl)benzamide]
[1]
  IC50: > 10000 nM
[2]
  IC50: 385 nM
[3]
  IC50: 2490 nM

## COc1cc(-c2coc3cc(OCCN4CCCC4)ccc23)cc(OC(F)F)c1C(=O)N[C@H]1CCC[C@H]1O [Compound 126, 2-(difluoromethoxy)-N-((1S,2R)-2-hydroxycyclopentyl)-6-methoxy-4-(6-(2-(pyrrolidin-1-yl)ethoxy)benzofuran-3-yl)benzamide]
[1]
  IC50: > 10000 nM
[2]
  IC50: 224 nM
[3]
  IC50: 878 nM

## COc1cc(-c2coc3cc(OCCN4CCCC4)ccc23)cc(OC(F)F)c1C(=O)NC1CCCCC1 [Compound 127, N-cyclohexyl-2-(difluoromethoxy)-6-methoxy-4-(6-(2-(pyrrolidin-1-yl)ethoxy)benzofuran-3-yl)benzamide]
[1]
  IC50: > 10000 nM
[2]
  IC50: 619 nM
[3]
  IC50: 2900 nM

## COc1cc(-c2coc3cc(OCCN4CCCC4)ccc23)cc(OC(F)F)c1C(=O)NC1CCCC1 [Compound 128, N-cyclopentyl-2-(difluoromethoxy)-6-methoxy-4-(6-(2-(pyrrolidin-1-yl)ethoxy)benzofuran-3-yl)benzamide]
[1]
  IC50: > 10000 nM
[2]
  IC50: 156 nM
[3]
  IC50: 812 nM

## COc1cc(-c2coc3cc(OCCN4CCCC4)ccc23)cc(OC(F)F)c1C(=O)NC1CCC1 [Compound 129, N-cyclobutyl-2-(difluoromethoxy)-6-methoxy-4-(6-(2-(pyrrolidin-1-yl)ethoxy)benzofuran-3-yl)benzamide]
[1]
  IC50: > 10000 nM
[2]
  IC50: 146 nM
[3]
  IC50: 683 nM

## COc1cc(-c2coc3cc(-c4cnn(C)c4)ccc23)cc(OC(F)F)c1C(=O)NC1CC1 [Compound 132, N-cyclopropyl-2-(difluoromethoxy)-6-methoxy-4-(6-(1-methyl-1H-pyrazol-4-yl)benzofuran-3-yl)benzamide]
[1]
  IC50: 124 nM
[2]
  IC50: 13 nM
[3]
  IC50: 15 nM

## COc1cc(-c2coc3cc(-c4ccc(C)nn4)ccc23)cc(OC(F)F)c1C(=O)NC1CC1 [Compound 133, N-cyclopropyl-2-(difluoromethoxy)-6-methoxy-4-(6-(6-methylpyridazin-3-yl)benzofuran-3-yl)benzamide]
[1]
  IC50: > 10000 nM
[2]
  IC50: 199 nM
[3]
  IC50: 199 nM

## NC1CCN(c2cccc3ccc(-c4coc5cc(OCCN6CCOCC6)ccc45)nc23)CC1 [Compound 134, 1-(2-(6-(2-morpholinoethoxy)benzofuran-3-yl)quinolin-8-yl) piperidin-4-amine]
[1]
  IC50: 958 nM
[2]
  IC50: 66 nM
[3]
  IC50: 156 nM

## COc1cc(-c2coc3cc(-c4cnn(C)c4)ccc23)cc2c1C(=O)N(CC(F)(F)F)CC2 [Example 1, 8-methoxy-6-(6-(1-methyl-1H-pyrazol-4-yl)benzofuran-3-yl)-2-(2,2,2-trifluoroethyl)-3,4-dihydroisoquinolin-1 (2H)-one]
[1]
  IC50: 303 nM
[2]
  IC50: 10 nM
[3]
  IC50: 19 nM

## CCn1cc(-c2ccc3c(-c4cc5c(c(OC)c4)C(=O)N(CC(F)(F)F)CC5)coc3c2)cn1 [Example 2, 6-(6-(1-ethyl-1H-pyrazol-4-yl)benzofuran-3-yl)-8-methoxy-2-(2,2,2-trifluoroethyl)-3,4-dihydroisoquinolin-1 (2H)-one]
[1]
  IC50: 375 nM
[2]
  IC50: 15 nM
[3]
  IC50: 28 nM

## COc1cc(-c2coc3cc(-c4cnn(C(C)C)c4)ccc23)cc2c1C(=O)N(CC(F)(F)F)CC2 [Example 3, 6-(6-(1-isopropyl-1H-pyrazol-4-yl)benzofuran-3-yl)-8-methoxy-2-(2,2,2-trifluoroethyl)-3,4-dihydroisoquinolin-1 (2H)-one]
[1]
  IC50: 476 nM
[2]
  IC50: 28 nM
[3]
  IC50: 42 nM

## COc1cc(-c2coc3cc(-c4cnn(C5CC5)c4)ccc23)cc2c1C(=O)N(CC(F)(F)F)CC2 [Example 4, 6-(6-(1-cyclopropyl-1H-pyrazol-4-yl)benzofuran-3-yl)-8-methoxy-2-(2,2,2-trifluoroethyl)-3,4-dihydroisoquinolin-1 (2H)-one]
[1]
  IC50: 728 nM
[2]
  IC50: 37 nM
[3]
  IC50: 53 nM

## COc1cc(-c2coc3cc(-c4cc(C)n[nH]4)ccc23)cc2c1C(=O)N(CC(F)(F)F)CC2 [Example 5, 8-methoxy-6-(6-(3-methyl-1H-pyrazol-5-yl)benzofuran-3-yl)-2-(2,2,2-trifluoroethyl)-3,4-dihydroisoquinolin-1 (2H)-one]
[1]
  IC50: 538 nM
[2]
  IC50: 33 nM
[3]
  IC50: 41 nM

## CCOc1cncc(-c2ccc3c(-c4cc5c(c(OC)c4)C(=O)N(CC(F)(F)F)CC5)coc3c2)c1 [Example 6, 6-(6-(5-ethoxypyridin-3-yl)benzofuran-3-yl)-8-methoxy-2-(2,2,2-trifluoroethyl)-3,4-dihydroisoquinolin-1 (2H)-one]
[1]
  IC50: > 10000 nM
[2]
  IC50: 7460 nM
[3]
  IC50: 1430 nM

## COc1cc(-c2coc3cc(-c4cn(C)cn4)ccc23)cc2c1C(=O)N(CC(F)(F)F)CC2 [Example 7, 8-methoxy-6-(6-(1-methyl-1H-imidazol-4-yl)benzofuran-3-yl)-2-(2,2,2-trifluoroethyl)-3,4-dihydroisoquinolin-1 (2H)-one]
[1]
  IC50: 671 nM
[2]
  IC50: 14 nM
[3]
  IC50: 60 nM

## COc1cc(-c2coc3cc(-c4ccc(C)nn4)ccc23)cc2c1C(=O)N(CC(F)(F)F)CC2 [Example 8, 8-methoxy-6-(6-(6-methylpyridazin-3-yl)benzofuran-3-yl)-2-(2,2,2-trifluoroethyl)-3,4-dihydroisoquinolin-1 (2H)-one]
[1]
  IC50: > 10000 nM
[2]
  IC50: 197 nM
[3]
  IC50: 304 nM

## COc1ccc(-c2ccc3c(-c4cc5c(c(OC)c4)C(=O)N(CC(F)(F)F)CC5)coc3c2)cn1 [Example 9, 8-methoxy-6-(6-(6-methoxypyridin-3-yl)benzofuran-3-yl)-2-(2,2,2-trifluoroethyl)-3,4-dihydroisoquinolin-1 (2H)-one]
[1]
  IC50: > 10000 nM
[2]
  IC50: 296 nM
[3]
  IC50: 334 nM

## COc1cc(-c2coc3cc(-c4cnnc(C)c4)ccc23)cc2c1C(=O)N(CC(F)(F)F)CC2 [Example 10, 8-methoxy-6-(6-(6-methylpyridazin-4-yl)benzofuran-3-yl)-2-(2,2,2-trifluoroethyl)-3,4-dihydroisoquinolin-1 (2H)-one]
[1]
  IC50: > 10000 nM
[2]
  IC50: 418 nM
[3]
  IC50: 187 nM

Reference: patent publication US20260085053A1, “BENZOFURAN DERIVATIVES AS SIK INHIBITORS AND THE USE THEREOF” (BEONE MEDICINES I GMBH, priority 2023, published 2026)
